Measured values: PubChem BioAssay (NCI)
Several values for one entry are separate records, joined by “and”; a condition that tells them apart may be missing. Identical values can stand only once.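 All cell lines were grown in 96-well plates and treated with compound for 48 hours. The concentration for 50% growth inhibition is given as GI50. TGI: concentration producing complete growth inhibition.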

Assays:
Test in all cases: DTP human tumour cell line panel, 48 h
[1] = tested on: A549 NSCLC
[2] = tested on: HCT-116 colon
[3] = tested on: KM12 colon
[4] = tested on: LOX IMVI melanoma
[5] = tested on: NCI-H522 lung
[6] = tested on: RXF 393 renal
[7] = tested on: SF-268 CNS
[8] = tested on: SF-539 CNS
[9] = tested on: SK-MEL-5 melanoma
[10] = tested on: SNB-19 CNS

SMILES | GI50 [1] | TGI [1] | GI50 [2] [µM] | TGI [2] | GI50 [3] [µM] | TGI [3] | GI50 [4] [µM] | TGI [4] | GI50 [5] [µM] | TGI [5] | GI50 [6] [µM] | TGI [6] | GI50 [7] [µM] | TGI [7] | GI50 [8] [µM] | TGI [8] | TGI [9] | GI50 [10] [µM] | TGI [10] | GI50 [9] [µM]
COc1ccc2cc(C(=O)/C=C/c3cccc(Cl)c3Cl)ccc2c1 | 10.9 µM | > 100 µM | 1 | 19.6 µM | 8.08 | 64.3 µM | 0.651 | > 24.9 µM | 0.614 | > 24.6 µM | 2.79 | 12.4 µM | 18.8 | > 92.2 µM | 2.68 | 12 µM | 4.3 µM | 26.2 | > 83.3 µM | 
O=C1CC2CCCCC2=C1O (configuration not stated) |  | > 100 µM |  | > 100 µM |  | > 100 µM |  | > 100 µM |  | > 100 µM |  | > 100 µM |  | > 100 µM |  | > 100 µM | > 100 µM |  | > 100 µM | 
Nc1c(C(=O)c2cccc(OCCN3CCOCC3)c2)cnn1-c1ccc(F)cc1 | > 25 µM | > 25 µM | > 25 | > 25 µM | > 25 | > 25 µM | > 25 | > 25 µM | > 25 | > 25 µM | > 25 | > 25 µM | > 25 | > 25 µM | > 25 | > 25 µM | > 25 µM | > 25 | > 25 µM | > 25
C(CCc1nnc2c(n1)CCCC2)Cc1nnc2c(n1)CCCC2 |  | > 100 µM |  | > 100 µM |  | > 100 µM |  | > 100 µM |  | > 100 µM |  | > 100 µM |  | > 100 µM |  | > 100 µM | > 100 µM |  | > 100 µM | 
COC(=O)c1ccc(=O)c2nc3/c(=C/O)c(O)cc(=O)c3[nH]c12 | 0.514 µM | 14.3 µM and 45 µM | 0.321 | 14.6 µM and 11.8 µM | 1.6 | 20.1 µM and 18.1 µM | 0.662 | 20.3 µM and 15.4 µM | 0.389 | 31 µM and 18.2 µM | 0.637 | 43.3 µM and 17.1 µM | 1.2 | 24.9 µM and 18.6 µM | 1.21 | 15.6 µM and 14.5 µM | 9.1 µM and 13.5 µM | 1.28 | 32.2 µM and 20.4 µM | 1.56
C=C(CN1CCN(c2cccc(C(F)(F)F)c2)CC1)c1ccc(C(=O)Nc2ccccc2N)cc1 | 1.48 µM | > 27.3 µM | 1.14 | 11.7 µM | 0.486 | 5.15 µM | 0.56 | 6.25 µM | 6.14 | > 16.1 µM | 1.62 |  | 1.43 | 10.8 µM | 0.543 | 2.82 µM | 6.72 µM | 4.11 | > 30.2 µM | 0.568
CC[C@@]1(O)C(=O)OCc2c1cc1n(c2=O)Cc2cc3cc(OC)ccc3nc2-1 | 0.0672 µM and 0.0109 µM | 2.92 µM | 0.0442 | 0.573 µM and 0.481 µM | 0.273 | 2.58 µM and 1.54 µM | 0.0125 | 0.173 µM and 0.298 µM and 0.105 µM |  | 0.437 µM and 1.99 µM | 0.101 | 0.0828 µM and 0.561 µM | 0.017 |  |  | 0.0361 µM and 0.0962 µM | 0.116 µM and 0.0278 µM |  | 4.19 µM | 
CS(=O)(=O)N1CCN(Cc2cc3nc(-c4cccc5[nH]ncc45)nc(N4CCOCC4)c3s2)CC1 (tested in a mixture with another compound) | 0.0213 µM | 0.0487 µM | 0.149 |  | 0.0826 | 0.415 µM | 0.169 |  | 0.375 | 13 µM | 0.0792 | 0.371 µM | 0.152 |  | 0.0319 | 0.108 µM | 0.638 µM | 0.328 |  | 0.201
O=S(=O)(NC(=S)Nc1ccccc1)c1ccc(N2N=C3c4ccccc4CC3C2c2cccs2)cc1 (configuration not stated) | 15.7 µM | > 100 µM | 15.1 | 34.8 µM | 21.5 | > 100 µM | 24.4 | 70.7 µM | 32.8 | > 100 µM | 78.1 | > 100 µM | 30.7 | > 100 µM | 22.7 | 46.3 µM | 44.7 µM | 33.8 | > 100 µM | 20.8
O=C([O-])c1ccc2c(c1)-c1nc-2nc2[n-]c(nc3nc(nc4[n-]c(n1)c1ccc(C(=O)[O-])cc41)-c1cc(C(=O)[O-])ccc1-3)c1ccc(C(=O)[O-])cc21.[Fe+2] | > 50 µM | > 50 µM | 13.6 | 34.4 µM | > 50 | > 50 µM | 20.7 | > 42.9 µM | > 50 | > 50 µM | > 50 | > 50 µM | > 50 | > 50 µM | > 29.5 | > 50 µM | > 50 µM | > 50 | > 50 µM | > 50
COc1cc2c3c(n(CCN)c(=O)c2cc1OC)-c1cc2c(cc1C3=O)OCO2 | 0.506 µM | > 23.7 µM | 0.0521 |  | 0.235 | 1.51 µM | 0.235 |  | 0.771 | 6.57 µM | 1.54 | 4.06 µM | 0.749 | 3.18 µM | 0.766 | 2.74 µM | 0.0975 µM | 1.5 | > 100 µM | < 0.01
C=C(CN(CC(=C)C(=O)c1ccccc1)C(C)(C)C)C(=O)c1ccccc1 |  | > 77.7 µM |  | 26.8 µM |  | 17.6 µM |  | 30.8 µM |  | 29.4 µM |  | 18.7 µM |  | 17 µM |  | 31.5 µM | 31.1 µM |  | > 59.9 µM | 
NC(=O)c1[nH]nc(C2OC(CO)C(O)C2O)c1O (configuration not stated) |  | 289 µM |  | 3770 µM |  | 2980 µM |  | 309 µM |  | 1050 µM |  | 551 µM |  | 3560 µM |  | 505 µM | 4090 µM |  | > 4620 µM | 
C=C1C(=O)O[C@H]2[C@H]1CC/C(COC(=O)C(=O)c1c[nH]c3ccc(OC)cc13)=C\CC[C@@]1(C)O[C@@H]21 | 8.64 µM | 17.3 µM | 4.48 | 8.73 µM | 7.82 | 14.2 µM | 1.49 | 2.35 µM | 5.34 | 9.31 µM | 3.21 | 6.84 µM | 6.75 | 13 µM | 6.15 | 10.4 µM | 8.72 µM | 8.97 | 19.6 µM | 5.48
